Converted amounts (≈) assume the structure as drawn. Bridge positions count the residues as written; N and C are the ends. Peptide text beside a SMILES is read from it.
Assays:
S. epidermis ATCC 51625 = format: cell-based; conditions: cation adjusted Mueller-Hinton broth, ~10^6 CFU/mL, 24 h, 37 °C, OD600 <0.1 in at least 3 of 4 wells, 2-128 μg/mL; shaded values previously reported ref 18
Procedure, shortened: (§1)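 MIC = lowest dAMP level giving OD600 <0.1 in at least three of four replicate wells after 24 h at 37 °C. Inoculum ~10^6 CFU/mL in 2X cation-adjusted Mueller–Hinton broth; potato dextrose broth for the fungal isolate. Test range 2–128 μg/mL plus untreated.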

[1] = system: Candida parapsilosis Y-1761; format: cell-based; conditions: potato dextrose broth, 24 h, 37 °C, OD600 <0.1 in at least 3 of 4 wells, dose range 2 to 128 µg/mL; shaded values previously reported ref 17
Procedure, shortened: as §1

P. aeruginosa 6186 = format: cell-based, Pseudomonas aeruginosa; conditions: cation adjusted Mueller-Hinton broth, ~10^6 CFU/mL, 24 h, 37 °C, OD600 <0.1 in at least 3 of 4 wells, 2-128 μg/mL; shaded values previously reported ref 18
Procedure, shortened: as §1

P. aeruginosa ATCC 27853 = format: cell-based, Pseudomonas aeruginosa; conditions: cation adjusted Mueller-Hinton broth, ~10^6 CFU/mL, 24 h, 37 °C, OD600 <0.1 in at least 3 of 4 wells, 2-128 μg/mL; shaded values previously reported ref 18
Procedure, shortened: as §1

P. aeruginosa ATCC 19660 = format: cell-based, Pseudomonas aeruginosa; conditions: cation adjusted Mueller-Hinton broth, ~10^6 CFU/mL, 24 h, 37 °C, OD600 <0.1 in at least 3 of 4 wells, 2-128 μg/mL; shaded values previously reported ref 18
Procedure, shortened: as §1

[2] = system: S. aureus 49525 (Xen36 luciferase); format: cell-based, Staphylococcus aureus; conditions: 8 μg/mL, 60 min incubation, bioluminescence, triplicates from two independent experiments
Source text: Fungal and bacterial strains were obtained from American Type Culture Collection (ATCC, Manassas, VA, USA) or the clinical isolate collection at Trideum Biosciences (Frederick, MD, USA) and are presented in Table 1 and Table 2, respectively. Bioluminescence strains of P. aeruginosa 19660, transfected with the Xen5 luciferase gene, and S. aureus ATCC R 49525TM (Wright), transfected with the Xen36 luciferase gene, were obtained from Perkin Elmer (Waltham, MA, USA).
Real-time killing of bacterial cells, P. aeruginosa or S. aureus, and mammalian cytotoxicity to assess dAMP off-target toxicity was evaluated using bioluminescent cells. The L929 fibroblast cells (ATCC, Manassas, VA, USA) were made bioluminescent by transfection with a luciferase gene. Cells (1 × 10^4 cells, 100 μL) were plated in 96-well black-walled plates and the candidate dAMPs were 2-fold serially diluted from specified concentrations in growth medium supplemented with 150 μg/mL D-luciferin. Each concentration was performed in triplicate, with the final volume being 200 μL. Imaging was performed at select times after the addition of the dAMP, and compared to concurrently run vehicle-control, using an IVIS Lumina imaging system (Caliper Life Sciences, Inc., Hopkinton, MA, USA). For imaging, the 96-well plate was positioned on the stage (12.5-cm field of view), with an open emission filter, binning of 4, and f-stop 1 and a 1-min exposure time. Monitoring bioluminescence allows assessment of the kinetics of cellular viability as there is a tight correlation between the bioluminescent signal and cell viability. Data analysis was performed using the Living Image software program (version 4.3, Caliper Life Sciences, Inc., Hopkinton, MA, USA).
Figure 3 RP553, RP556, RP557 rapidly destroy P. aeruginosa and S. aureus. The bioluminescence of viable P. aeruginosa 19,660 and S. aureus 49,525 cells was quantitated in real time with an IVIS Lumina bioimaging system. Data represent the mean ± SE of triplicate replicates from two independent experiments. For some points, the error bars are shorter than the height of the symbols.

A. baumannii 6838 = format: cell-based, Acinetobacter baumannii; conditions: cation adjusted Mueller-Hinton broth, ~10^6 CFU/mL, 24 h, 37 °C, OD600 <0.1 in at least 3 of 4 wells, 2-128 μg/mL; shaded values previously reported ref 18
Procedure, shortened: as §1

A. baumannii 6043 = format: cell-based, Acinetobacter baumannii; conditions: cation adjusted Mueller-Hinton broth, ~10^6 CFU/mL, 24 h, 37 °C, OD600 <0.1 in at least 3 of 4 wells, 2-128 μg/mL; shaded values previously reported ref 18
Procedure, shortened: as §1

A. baumannii ATCC 17978 = format: cell-based, Acinetobacter baumannii; conditions: cation adjusted Mueller-Hinton broth, ~10^6 CFU/mL, 24 h, 37 °C, OD600 <0.1 in at least 3 of 4 wells, 2-128 μg/mL; shaded values previously reported ref 18
Procedure, shortened: as §1

S. aureus B-767 = format: cell-based, Staphylococcus aureus; conditions: cation adjusted Mueller-Hinton broth, ~10^6 CFU/mL, 24 h, 37 °C, OD600 <0.1 in at least 3 of 4 wells, 2-128 μg/mL; shaded values previously reported ref 18
Procedure, shortened: as §1

MRSA ATCC 33592 = format: cell-based, Staphylococcus aureus; conditions: cation adjusted Mueller-Hinton broth, ~10^6 CFU/mL, 24 h, 37 °C, OD600 <0.1 in at least 3 of 4 wells, 2-128 μg/mL; shaded values previously reported ref 18
Procedure, shortened: as §1

S. aureus 6061 = format: cell-based, Staphylococcus aureus; conditions: cation adjusted Mueller-Hinton broth, ~10^6 CFU/mL, 24 h, 37 °C, OD600 <0.1 in at least 3 of 4 wells, 2-128 μg/mL; shaded values previously reported ref 18
Procedure, shortened: as §1

MRSA 6313 = format: cell-based, Staphylococcus aureus; conditions: cation adjusted Mueller-Hinton broth, ~10^6 CFU/mL, 24 h, 37 °C, OD600 <0.1 in at least 3 of 4 wells, 2-128 μg/mL; shaded values previously reported ref 18
Procedure, shortened: as §1

MRSA 6381 = format: cell-based, Staphylococcus aureus; conditions: cation adjusted Mueller-Hinton broth, ~10^6 CFU/mL, 24 h, 37 °C, OD600 <0.1 in at least 3 of 4 wells, 2-128 μg/mL; shaded values previously reported ref 18
Procedure, shortened: as §1

K. pneumonia ATCC 10031 = format: cell-based, Klebsiella pneumoniae; conditions: cation adjusted Mueller-Hinton broth, ~10^6 CFU/mL, 24 h, 37 °C, OD600 <0.1 in at least 3 of 4 wells, 2-128 μg/mL; shaded values previously reported ref 18
Procedure, shortened: as §1

K. pneumonia 6069 = format: cell-based, Klebsiella pneumoniae; conditions: cation adjusted Mueller-Hinton broth, ~10^6 CFU/mL, 24 h, 37 °C, OD600 <0.1 in at least 3 of 4 wells, 2-128 μg/mL; shaded values previously reported ref 18
Procedure, shortened: as §1

`CC[C@H](C)[C@@H]1NC(=O)CNC(=O)[C@H](CCCCN)NC(=O)[C@H](Cc2ccc(O)cc2)NC(=O)[C@@H]2CSSC[C@H](NC1=O)C(=O)N[C@@H](Cc1ccc(O)cc1)C(=O)N[C@@H](CCCCN)C(=O)N[C@@H](CCCCN)C(=O)N[C@H](C(=O)N[C@@H](CCCCN)C(N)=O)CSSC[C@H](NC(=O)[C@H](Cc1c[nH]c3ccccc13)NC(=O)[C@@H](N)CCCNC(=N)N)C(=O)N[C@@H](Cc1ccccc1)C(=O)N[C@@H](CCCCN)C(=O)N[C@@H](C(C)C)C(=O)N2` [RP556] (H-RWCFKVCYKGICYKKCK-NH2; disulfide 3-16, 7-12) was tested, and the “MIC against S. epidermis ATCC 51625” value (S. epidermis ATCC 51625) was 4 µg/mL (≈ 1.86 µM), the “MIC against Candida parapsilosis Y-1761” value [1] was 32 µg/mL (≈ 14.9 µM) and the “MIC against P. aeruginosa 6186” value (P. aeruginosa 6186) was 4 µg/mL (≈ 1.86 µM). The “MIC against P. aeruginosa ATCC 27853” value (P. aeruginosa ATCC 27853) was 8 µg/mL (≈ 3.72 µM), the “MIC against P. aeruginosa ATCC 19660” value (P. aeruginosa ATCC 19660) was 8 µg/mL (≈ 3.72 µM) and the S. aureus killing [2] was 45%. The “MIC against A. baumannii 6838” value (A. baumannii 6838) was 8 µg/mL (≈ 3.72 µM), the “MIC against A. baumannii 6043” value (A. baumannii 6043) was 8 µg/mL (≈ 3.72 µM) and the “MIC against A. baumannii ATCC 17978” value (A. baumannii ATCC 17978) was 8 µg/mL (≈ 3.72 µM). The “MIC against S. aureus B-767” value (S. aureus B-767) was 8 µg/mL (≈ 3.72 µM), the “MIC against MRSA ATCC 33592” value (MRSA ATCC 33592) was 4 µg/mL (≈ 1.86 µM) and the “MIC against S. aureus 6061” value (S. aureus 6061) was 16 µg/mL (≈ 7.44 µM). For the same molecule, the “MIC against MRSA 6313” value (MRSA 6313) was 8 µg/mL (≈ 3.72 µM), the “MIC against MRSA 6381” value (MRSA 6381) was 4 µg/mL (≈ 1.86 µM) and the “MIC against K. pneumonia ATCC 10031” value (K. pneumonia ATCC 10031) was 8 µg/mL (≈ 3.72 µM). For the same molecule, the “MIC against K. pneumonia 6069” value (K. pneumonia 6069) was 8 µg/mL (≈ 3.72 µM).
